Positions of bridges follow the written chain, without caps; N, C: chain ends. Non-standard residues stand in square brackets, D forms with d. No end group written: not given here. hArg = N=C(N)NCCCC[C@H](N)C(=O)O; Cit = NC(=O)NCCC[C@H](N)C(=O)O
What was measured:
Format in all cases: cell-based
[1] = test system: murine E^k MHC class II allele; experiment: simultaneous assay, E^k allele (CH27 APC, TPc9.1 T hybridoma, THMCC82-103 or PGCC81-104)
How it was run: (§1)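 Antigenic peptide, mitomycin C-treated APC, effector compound and allele-restricted T hybridoma cultured together for 24 h. Supernatant then transferred to interleukin-dependent HT-2 cells. T cell activation quantified as [3H]TdR uptake by HT-2 cells.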

[2] = target: T1, murine E^d MHC class II allele (Mus musculus, UniProt P01904+P01915); experiment: AE101 series peptide prepulse assay, E^d allele; conditions: for T cell response relative to baseline with PBS-pretreated APC (NONE = 1.0), E^d: Table 35, AE101 series peptide prepulse 64 μM, antigenic peptide 0.3 μM, supernatant dilution 1:4
T1 sequence (P01904 26-255): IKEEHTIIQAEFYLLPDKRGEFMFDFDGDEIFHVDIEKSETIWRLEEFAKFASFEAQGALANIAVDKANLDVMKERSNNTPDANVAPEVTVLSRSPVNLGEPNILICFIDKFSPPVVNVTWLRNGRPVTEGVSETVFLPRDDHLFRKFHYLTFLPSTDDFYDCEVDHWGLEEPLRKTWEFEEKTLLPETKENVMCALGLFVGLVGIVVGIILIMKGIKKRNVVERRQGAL
T1 sequence (P01915 27-264 limits assumed): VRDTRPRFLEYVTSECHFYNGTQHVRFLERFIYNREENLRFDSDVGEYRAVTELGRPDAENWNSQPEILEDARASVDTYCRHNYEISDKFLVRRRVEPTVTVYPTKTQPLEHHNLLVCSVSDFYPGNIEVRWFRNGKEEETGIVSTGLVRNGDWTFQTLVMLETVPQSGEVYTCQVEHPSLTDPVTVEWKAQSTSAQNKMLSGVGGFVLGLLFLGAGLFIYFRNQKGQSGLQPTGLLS
Procedure: (§2) Table 35: Activities of multiple substitution analogs of AE235, targeting the E^k and E^d allele, in an AE101 series peptide prepulse assay. In this assay the concentration of AE101 series peptides used during the prepulse was 64 μM. The concentrations of antigenic peptides were 0.3 μM for Ed and 0.4 μM for E^k. The supernatant dilutions taken into the HT-2 cell assay was 1:4 for E and 1:2 for E^k. The AE381 peptide is a head-to-tail cyclization: the amino terminal amino group is coupled through an amide linkage to the carboxyl terminal group. The AE 382 peptide is a side-to-tail cyclization: the epsilon amino group of Lys^4 is coupled through an amide linkage to the carboxyl terminal group.
(§3) AE101 series peptide prepulse assays were carried out in the E^d and E^k systems as described for simultaneous competition assays with the following modifications. Fixed APC were first incubated for 6 h at 1×10^6DMEM-5% FCS with 64 μM of each AE101 series peptide or with PBS. The APC were then washed four times with ten volumes of DMEM-5% FCS, and were cocultured with T hybridoma cells and the indicated submaximal doses of antigenic peptides used in the simultaneous competition assays. The baseline T cell response was measured by culturing T hybridoma cells with antigenic peptide and PBS-pretreated APC.

[3] = test system: murine E^k MHC class II allele; experiment: AE101 series peptide prepulse assay, E^k allele; conditions: Table 35; AE101 series peptide prepulse 64 μM; antigenic peptide 0.4 μM; supernatant dilution 1:2
Procedure: as §2, §3

[4] = target: T1, murine E^d MHC class II allele; experiment: simultaneous assay, E^d allele (A20 APC, G28.C9 T hybridoma, HEL106-116; HT-2 [3H]TdR readout); design: The A20 and CH27 B cell lymphoma lines express H-2^d and H-2^k alleles, respectively; endogenous in cells; host or cells: A20 B cell lymphoma (mitomycin C-treated or paraformaldehyde-fixed)
How it was run: as §1

[5] = Table 18, AE peptide 64 μM, supernatant 1:4
[6] = Table 16, AE peptide 4 μM, supernatant 1:8
[7] = Table 15, AE peptide 16 μM, supernatant 1:4

| Substance | Times Baseline Response, E^k [1, 6] | Times Baseline Response, E^d [4, 6] | other results |
| --- | --- | --- | --- |
| cyclic LRMKLPK (bridge (positions not given here); also: cyclic, ring type not given here) [AE381, “head-to-tail” cyclization from the amino-terminus to the carboxyl-terminus of AE114] | – | – | Times Baseline Response, E^k [1, 5]: 0.56; T cell response relative to baseline with PBS-pretreated APC (NONE = 1.0), E^d [2]: 1.0; activity in the AE101 series peptide prepulse assay, in words ([2]; text on Table 35, AE peptide prepulse 64 μM, E^d and E^k systems): potent suppressive activity; T cell response relative to baseline with PBS-pretreated APC (NONE = 1.0), E^k [3]: 0.3; Times Baseline Response, E^d [4, 5]: 2.1; activity in simultaneous assay on E^d and E^k, in words ([4]; Tables 12 and 18): weak |
| Ac-L[hArg]LKYPK-NH2 [AE361] | 4.6 | 8.2 | – |
| Ac-LRMKLPK (lactam 4-C) [AE382] | – | – | Times Baseline Response, E^k [1, 5]: 18.1; activity in simultaneous assay on E^k, in words ([1]; Tables 2 and 18): moderately active; T cell response relative to baseline with PBS-pretreated APC (NONE = 1.0), E^d [2]: 1.7; T cell response relative to baseline with PBS-pretreated APC (NONE = 1.0), E^k [3]: 3.2; Times Baseline Response, E^d [4, 5]: 1.9; activity in simultaneous assay on E^d, in words ([4]; text on Table 18): relatively inactive |
| Ac-L[hArg]MKYPK-NH2 [AE360] | 2.5 | 5.8 | – |
| Ac-A[Cit]NKNPK-NH2 [AE351] | – | – | Times Baseline Response, E^k [1, 7]: 1.6; Times Baseline Response, E^d [4, 7]: 0.8 |
| Ac-LR HArg MYPK-NH2 [AE365] | 20.1 | 6.1 | – |
| Ac-LRMKNPF-NH2 [AE350] | – | – | Times Baseline Response, E^k [1, 7]: 24.2; Times Baseline Response, E^d [4, 7]: 28.6 |
| Ac-FK HArg MYP Cit-NH2 [AE371] | 1.5 | 1.6 | – |
| Ac-LRMMYP[Cit]-NH2 [AE367] | 6.6 | 1.0 | – |
| Ac-LRLKYPN-NH2 [AE368] | 11.2 | 9.4 | – |
| Ac-LR HArg KYP Cit-NH2 [AE366] | 49.4 | 7.3 | T cell response relative to baseline with PBS-pretreated APC (NONE = 1.0), E^d [2]: 7.5; T cell response relative to baseline with PBS-pretreated APC (NONE = 1.0), E^k [3]: 3.5 |
| Ac-LRMKYP[Cit]-NH2 [AE364] | 16.6 | 14.0 | – |
| Ac-LR Orn K HArg PK-NH2 [AE340] | – | – | Times Baseline Response, E^k [1, 7]: 39.5; Times Baseline Response, E^d [4, 7]: 46.6 |
| Ac-LRMKYPN-NH2 [AE370] | 7.5 | 8.7 | – |
| Ac-LK HArg KYPK-NH2 [AE363] | 1.7 | 1.6 | – |
| Ac-LKMKYPK-NH2 [AE362] | 1.3 | 1.2 | – |

Source: patent US6835382B2, “Ii peptide therapeutics to enhance antigen presentation” (University of Massachusetts, priority 1996, dated 2004)
